Key:
Experiment in all cases: relative viability (nuclei count vs DMSO), 5 days (fraction); higher = more cells survive
Wnt-C59 + Olaparib = compound: CC1=NC=CC(=C1)C2=CC=C(C=C2)CC(=O)NC3=CC=C(C=C3)C4=CN=CC=C4 [Wnt-C59] + O=C(c1cc(Cc2n[nH]c(=O)c3ccccc23)ccc1F)N1CCN(C(=O)C2CC2)CC1 [Olaparib] (partner 8 µM)
Method in brief: (§1)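 The day after seeding in 1536-well plates, lung cancer cell lines were treated by pin tool with a single drug, or with a fixed anchor-drug dose together with five library-drug doses (not always all listed) in √10 steps. After 5 days, a combined fix-and-stain solution (final 0.05% Triton X-100, 1% formaldehyde, 1 ug/ml Hoechst) was added. Nuclei counted on 4× images gave relative viability as treated counts over vehicle counts, reported as the median of duplicate plates.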

Lapatinib + Alpelisib = compound: CS(=O)(=O)CCNCc1ccc(-c2ccc3ncnc(Nc4ccc(OCc5cccc(F)c5)c(Cl)c4)c3c2)o1 [Lapatinib] + Cc1nc(NC(=O)N2CCC[C@H]2C(N)=O)sc1-c1ccnc(C(C)(C)C(F)(F)F)c1 [Alpelisib] (partner 2 µM)
Method in brief: as §1

Lapatinib + Pictilisib = compound: CS(=O)(=O)CCNCc1ccc(-c2ccc3ncnc(Nc4ccc(OCc5cccc(F)c5)c(Cl)c4)c3c2)o1 [Lapatinib] + CS(=O)(=O)N1CCN(Cc2cc3nc(-c4cccc5[nH]ncc45)nc(N4CCOCC4)c3s2)CC1 [Pictilisib] (partner 1 µM)
Method in brief: as §1

Lapatinib + Foretinib = compound: CS(=O)(=O)CCNCc1ccc(-c2ccc3ncnc(Nc4ccc(OCc5cccc(F)c5)c(Cl)c4)c3c2)o1 [Lapatinib] + COc1cc2c(Oc3ccc(NC(=O)C4(C(=O)Nc5ccc(F)cc5)CC4)cc3F)ccnc2cc1OCCCN1CCOCC1 [Foretinib] (partner 0.25 µM)
Method in brief: as §1

Cell Line | relative viability (Wnt-C59 + Olaparib; first compound 0.001 µM) | relative viability (Wnt-C59 + Olaparib; first compound 0.01 µM) | relative viability (Wnt-C59 + Olaparib; first compound 0.03162 µM) | relative viability (Wnt-C59 + Olaparib; first compound 0.1 µM) | relative viability (Lapatinib + Alpelisib; first compound 0.02 µM) | relative viability (Lapatinib + Alpelisib; first compound 0.06325 µM) | relative viability (Lapatinib + Alpelisib; first compound 0.2 µM) | relative viability (Lapatinib + Alpelisib; first compound 0.6325 µM) | relative viability (Lapatinib + Alpelisib; first compound 2 µM) | relative viability (Lapatinib + Pictilisib; first compound 0.02 µM) | relative viability (Lapatinib + Pictilisib; first compound 0.06325 µM) | relative viability (Lapatinib + Pictilisib; first compound 0.2 µM) | relative viability (Lapatinib + Pictilisib; first compound 0.6325 µM) | relative viability (Lapatinib + Pictilisib; first compound 2 µM) | relative viability (Lapatinib + Foretinib; first compound 0.02 µM) | relative viability (Lapatinib + Foretinib; first compound 0.06325 µM) | relative viability (Lapatinib + Foretinib; first compound 0.2 µM) | relative viability (Lapatinib + Foretinib; first compound 0.6325 µM) | relative viability (Lapatinib + Foretinib; first compound 2 µM)
NCI-H1299 | 0.918 | 0.953 | 0.932 | 0.937 | 1.06 | 1.08 | 1.11 | 1.03 | 1.04 | 0.871 | 0.768 | 0.859 | 0.801 | 0.803 | 1.1 | 0.885 | 1.12 | 1.1 | 1.05
NCI-H1355 | 0.726 | 0.756 | 0.717 | 0.716 | – | 0.621 | 0.734 | 0.762 | 0.416 | – | 0.419 | 0.496 | 0.499 | 0.285 | – | 0.795 | 0.94 | 0.93 | 0.657
NCI-H1395 | 0.497 | 0.444 | 0.411 | 0.424 | – | 0.93 | 1.18 | 0.978 | 1.03 | – | 0.66 | 0.527 | 0.696 | 0.583 | 1.03 | 1.04 | 1.01 | 0.929 | 0.917
NCI-H1437 | 0.626 | 0.629 | 0.62 | 0.605 | 1 | 0.869 | 1.02 | 0.864 | 0.866 | 0.5 | 0.314 | 0.386 | 0.482 | 0.422 | 1.23 | 1.33 | 1.32 | 1.2 | 1.12
NCI-H1651 | 0.202 | 0.164 | 0.203 | 0.184 | 0.919 | 0.827 | 0.897 | 0.828 | 0.932 | 0.561 | 0.472 | 0.526 | 0.613 | 0.596 | 0.716 | 0.776 | 0.764 | 0.695 | 0.611
NCI-H1666 | 0.732 | 0.758 | 0.711 | 0.817 | 0.744 | 0.835 | 0.671 | 0.485 | 0.244 | 0.33 | 0.327 | 0.39 | 0.329 | 0.2 | 0.815 | 0.868 | 0.873 | 0.652 | 0.558
NCI-H1703 | 0.507 | 0.368 | 0.611 | 0.322 | 0.289 | 0.33 | 0.325 | 0.398 | 0.343 | 0.231 | 0.213 | 0.228 | 0.32 | 0.275 | 0.305 | 0.347 | 0.296 | 0.299 | 0.388
NCI-H1734 | 0.615 | 0.612 | 0.672 | 0.282 | – | 0.489 | 0.653 | 0.736 | 0.657 | – | 0.354 | 0.451 | 0.47 | 0.534 | 0.842 | 0.694 | 0.804 | 0.888 | 0.779
NCI-H1755 | 0.944 | 0.851 | 0.888 | 0.798 | 0.906 | 0.873 | 0.915 | 0.888 | 0.789 | 0.244 | 0.363 | 0.433 | 0.437 | 0.371 | 0.866 | 0.865 | 0.898 | 0.896 | 0.892
NCI-H1793 | 0.779 | 0.734 | 1.01 | 0.841 | – | – | – | 0.563 | 0.384 | – | – | – | 0.368 | 0.318 | – | 0.5 | 0.497 | 0.524 | 0.422
NCI-H1915 | 0.256 | 0.266 | 0.248 | 0.239 | – | 1.05 | 1.08 | 1.03 | 1.02 | – | 0.909 | 0.982 | 0.981 | 0.949 | – | 1.06 | 1.12 | 1.08 | 1.09
NCI-H1944 | 0.463 | 0.396 | 0.343 | 0.388 | – | – | 0.645 | 0.647 | 0.488 | – | – | 0.348 | 0.343 | 0.318 | 0.836 | 0.637 | 0.745 | 0.723 | 0.537
NCI-H1975 | 0.797 | 0.807 | 0.786 | 0.869 | 0.662 | 0.58 | 0.537 | 0.573 | 0.462 | 0.281 | 0.24 | 0.309 | 0.329 | 0.192 | 0.924 | 0.855 | 1.02 | 0.835 | 0.715
NCI-H1993 | 1.17 | 1.06 | 1.11 | 0.413 | 0.683 | – | 0.721 | 0.684 | 0.665 | 0.715 | – | 0.808 | 0.812 | 0.977 | 0.691 | – | 0.75 | 0.71 | 0.762
NCI-H2009 | 0.644 | 0.765 | 0.734 | 0.727 | 1.12 | 1.16 | 1.16 | 1.16 | 1.12 | 0.357 | 0.747 | 0.989 | 0.853 | 0.974 | 1.17 | 1.25 | 1.26 | 1.22 | 1.17

Source: the supplement of paper PMC10307832
